Values joined by “and” are separate entries in the source; they are usually repeats but may differ in a detail not shown here. Equal entries are not always repeated. Toxic doses and inconclusive results are not listed.
Tested on: C57BL/6 mice, intracerebral ependymoblastoma, median survival T/C
Test: NCI In Vivo Anticancer Drug Screen. Data for tumor model Ependymoblastoma (intracerebral) in C57BL/6 mice
Conditions: endpoint: median survival time, higher = longer survival
Protocol: The antitumor activity of compounds was measured in mice bearing transplantable tumors. Survival or tumor size were measured and the results are expressed as the measurement made in the treated group (T) divided by the measurement made in the vehicle treated control group (C). The tumor model used in this assay is Ependymoblastoma (intracerebral) in C57BL/6 mice

[1] = dose: 32.0 mg/kg/injection, schedule: Q01DX005 (ip), vehicle: Klucel (hydroxypropylcellulose) (HPC)
[2] = dose: 128.0 mg/kg/injection, schedule: Q01DX005 (ip), vehicle: Klucel (hydroxypropylcellulose) (HPC)
[3] = dose: 256.0 mg/kg/injection, schedule: Q01DX001 (ip), vehicle: Klucel (hydroxypropylcellulose) (HPC)
[4] = dose: 256.0 mg/kg/injection, schedule: Q01DX005 (oral), vehicle: Klucel (hydroxypropylcellulose) (HPC)
[5] = dose: 512.0 mg/kg/injection, schedule: Q01DX005 (ip), vehicle: Klucel (hydroxypropylcellulose) (HPC)
[6] = dose: 1024.0 mg/kg/injection, schedule: Q01DX001 (ip), vehicle: Klucel (hydroxypropylcellulose) (HPC)
[7] = dose: 1024.0 mg/kg/injection, schedule: Q01DX005 (oral), vehicle: Klucel (hydroxypropylcellulose) (HPC)
[8] = dose: 64.0 mg/kg/injection, schedule: Q01DX005 (ip), vehicle: saline with Tween-80
[9] = dose: 128.0 mg/kg/injection, schedule: Q01DX005 (ip), vehicle: saline with Tween-80
[10] = dose: 256.0 mg/kg/injection, schedule: Q01DX005 (ip), vehicle: saline with Tween-80

## CCOC(=O)CNC(=O)CCCCSc1ncnc2nc[nH]c12
dose: 1.0 mg/kg/injection, schedule: Q01DX005 (ip), vehicle: Klucel (hydroxypropylcellulose) (HPC)
  T/C: 109 % of control
dose: 4.0 mg/kg/injection, schedule: Q01DX005 (ip), vehicle: saline
  T/C: 103 % of control
dose: 8.0 mg/kg/injection, schedule: Q01DX005 (ip), vehicle: Klucel (hydroxypropylcellulose) (HPC)
  T/C: 104 % of control
dose: 16.0 mg/kg/injection, schedule: Q01DX001 (ip), vehicle: Klucel (hydroxypropylcellulose) (HPC)
  T/C: 104 % of control and 105 % of control and 106 % of control
dose: 16.0 mg/kg/injection, schedule: Q01DX001 (oral), vehicle: Klucel (hydroxypropylcellulose) (HPC)
  T/C: 95 % of control and 102 % of control
dose: 16.0 mg/kg/injection, schedule: Q01DX005 (ip), vehicle: saline
  T/C: 95 % of control and 103 % of control
dose: 16.0 mg/kg/injection, schedule: Q01DX005 (oral), vehicle: Klucel (hydroxypropylcellulose) (HPC)
  T/C: 94 % of control
dose: 16.0 mg/kg/injection, schedule: Q#A X002 (ip), vehicle: Klucel (hydroxypropylcellulose) (HPC)
  T/C: 108 % of control
[1]
  T/C: 103 % of control and 117 % of control
dose: 32.0 mg/kg/injection, schedule: Q## X006 (ip), vehicle: Klucel (hydroxypropylcellulose) (HPC)
  T/C: 102 % of control
dose: 64.0 mg/kg/injection, schedule: Q01DX001 (ip), vehicle: Klucel (hydroxypropylcellulose) (HPC)
  T/C: 90 % of control and 100 % of control and 108 % of control
dose: 64.0 mg/kg/injection, schedule: Q01DX001 (oral), vehicle: Klucel (hydroxypropylcellulose) (HPC)
  T/C: 102 % of control and 103 % of control
dose: 64.0 mg/kg/injection, schedule: Q01DX005 (ip), vehicle: saline
  T/C: 102 % of control and 107 % of control
dose: 64.0 mg/kg/injection, schedule: Q01DX005 (oral), vehicle: Klucel (hydroxypropylcellulose) (HPC)
  T/C: 106 % of control
dose: 64.0 mg/kg/injection, schedule: Q## X006 (ip), vehicle: Klucel (hydroxypropylcellulose) (HPC)
  T/C: 120 % of control
dose: 64.0 mg/kg/injection, schedule: Q#A X002 (ip), vehicle: Klucel (hydroxypropylcellulose) (HPC)
  T/C: 116 % of control
[2]
  T/C: 113 % of control and 116 % of control
dose: 128.0 mg/kg/injection, schedule: Q## X006 (ip), vehicle: Klucel (hydroxypropylcellulose) (HPC)
  T/C: 106 % of control
[3]
  T/C: 96 % of control and 106 % of control and 113 % of control
dose: 256.0 mg/kg/injection, schedule: Q01DX001 (oral), vehicle: Klucel (hydroxypropylcellulose) (HPC)
  T/C: 107 % of control
dose: 256.0 mg/kg/injection, schedule: Q01DX005 (ip), vehicle: saline
  T/C: 92 % of control and 109 % of control
[4]
  T/C: 108 % of control
dose: 256.0 mg/kg/injection, schedule: Q## X006 (ip), vehicle: Klucel (hydroxypropylcellulose) (HPC)
  T/C: 115 % of control
dose: 256.0 mg/kg/injection, schedule: Q#A X002 (ip), vehicle: Klucel (hydroxypropylcellulose) (HPC)
  T/C: 114 % of control
dose: 266.0 mg/kg/injection, schedule: Q01DX005 (ip), vehicle: Klucel (hydroxypropylcellulose) (HPC)
  T/C: 113 % of control and 120 % of control
[5]
  T/C: 108 % of control
dose: 512.0 mg/kg/injection, schedule: Q## X006 (ip), vehicle: Klucel (hydroxypropylcellulose) (HPC)
  T/C: 105 % of control
[6]
  T/C: 103 % of control and 106 % of control and 112 % of control
dose: 1024.0 mg/kg/injection, schedule: Q01DX001 (oral), vehicle: Klucel (hydroxypropylcellulose) (HPC)
  T/C: 91 % of control and 97 % of control
dose: 1024.0 mg/kg/injection, schedule: Q01DX005 (ip), vehicle: saline
  T/C: 109 % of control
[7]
  T/C: 115 % of control
dose: 1024.0 mg/kg/injection, schedule: Q#A X002 (ip), vehicle: Klucel (hydroxypropylcellulose) (HPC)
  T/C: 99 % of control

## O=NN(CCF)C(=O)NC1CCCCC1
dose: 10.0 mg/kg/injection, schedule: Q01DX005 (ip), vehicle: suspension in saline
  T/C: 123 % of control
dose: 20.0 mg/kg/injection, schedule: Q01DX005 (ip), vehicle: suspension in saline
  T/C: 262 % of control

## CCC1=C[C@H]2CN(CCc3c([nH]c4ccccc34)[C@@](C(=O)OC)(c3cc4c(cc3OC)N(C)[C@H]3[C@@](O)(C(=O)NC)[C@H](OC(C)=O)[C@]5(CC)C=CCN6CC[C@]43[C@@H]65)C2)C1
dose: 0.05 mg/kg/injection, schedule: Q01DX005 (ip), vehicle: Klucel (hydroxypropylcellulose) (HPC)
  T/C: 105 % of control
dose: 0.1 mg/kg/injection, schedule: Q01DX005 (ip), vehicle: Klucel (hydroxypropylcellulose) (HPC)
  T/C: 98 % of control
dose: 0.2 mg/kg/injection, schedule: Q01DX005 (ip), vehicle: Klucel (hydroxypropylcellulose) (HPC)
  T/C: 107 % of control
dose: 0.4 mg/kg/injection, schedule: Q01DX005 (ip), vehicle: Klucel (hydroxypropylcellulose) (HPC)
  T/C: 103 % of control
dose: 0.8 mg/kg/injection, schedule: Q01DX005 (ip), vehicle: Klucel (hydroxypropylcellulose) (HPC)
  T/C: 93 % of control

## O=P1(NCCCl)OCCCN1CCCl (centres undefined)
dose: 6.25 mg/kg/injection, schedule: Q01DX005 (ip), vehicle: saline
  T/C: 122 % of control
dose: 12.5 mg/kg/injection, schedule: Q01DX005 (ip), vehicle: saline
  T/C: 110 % of control
dose: 25.0 mg/kg/injection, schedule: Q01DX005 (ip), vehicle: saline
  T/C: 114 % of control
dose: 25.0 mg/kg/injection, schedule: Q01DX005 (ip), vehicle: water
  T/C: 92 % of control and 117 % of control
dose: 50.0 mg/kg/injection, schedule: Q01DX001 (ip), vehicle: water
  T/C: 96 % of control
dose: 50.0 mg/kg/injection, schedule: Q01DX005 (ip), vehicle: water
  T/C: 90 % of control
dose: 100.0 mg/kg/injection, schedule: Q01DX001 (ip), vehicle: water
  T/C: 106 % of control
dose: 100.0 mg/kg/injection, schedule: Q01DX005 (ip), vehicle: water
  T/C: 106 % of control and 123 % of control
dose: 200.0 mg/kg/injection, schedule: Q01DX001 (ip), vehicle: water
  T/C: 119 % of control
dose: 200.0 mg/kg/injection, schedule: Q01DX005 (ip), vehicle: water
  T/C: 116 % of control

## OC(CCl)CN1CC[N+]2(CC1)CC[N+]1(CCN(CC(O)CCl)CC1)CC2 (centres undefined)
dose: 40.0 mg/kg/injection, schedule: Q01DX005 (ip), vehicle: saline
  T/C: 109 % of control and 117 % of control

## OCCN1CCN(CC/C=C2/c3ccccc3Sc3ccc(C(F)(F)F)cc32)CC1
dose: 12.5 mg/kg/injection, schedule: Q04DX003 (ip), vehicle: saline
  T/C: 115 % of control
dose: 25.0 mg/kg/injection, schedule: Q04DX003 (ip), vehicle: saline
  T/C: 117 % of control

## O=C(N/N=C\c1cc(Br)cc(Br)c1O)N/N=C/c1cc(Br)cc(Br)c1O
dose: 32.0 mg/kg/injection, schedule: Q01DX005 (ip), vehicle: saline with Tween-80
  T/C: 88 % of control
[8]
  T/C: 97 % of control
[9]
  T/C: 88 % of control
[10]
  T/C: 93 % of control

## CCC(=O)O[C@H]1CC[C@H]2[C@@H]3[C@@H](C)CC4=CC(=O)CC[C@]4(C)[C@H]3CC[C@]12C
[1]
  T/C: 104 % of control
dose: 64.0 mg/kg/injection, schedule: Q01DX005 (ip), vehicle: Klucel (hydroxypropylcellulose) (HPC)
  T/C: 105 % of control and 106 % of control
dose: 128.0 mg/kg/injection, schedule: Q01DX001 (ip), vehicle: Klucel (hydroxypropylcellulose) (HPC)
  T/C: 106 % of control
[2]
  T/C: 105 % of control and 111 % of control
dose: 128.0 mg/kg/injection, schedule: Q01DX005 (oral), vehicle: Klucel (hydroxypropylcellulose) (HPC)
  T/C: 109 % of control
[3]
  T/C: 93 % of control
dose: 256.0 mg/kg/injection, schedule: Q01DX005 (ip), vehicle: Klucel (hydroxypropylcellulose) (HPC)
  T/C: 103 % of control and 113 % of control
[4]
  T/C: 97 % of control
dose: 512.0 mg/kg/injection, schedule: Q01DX001 (ip), vehicle: Klucel (hydroxypropylcellulose) (HPC)
  T/C: 103 % of control
[5]
  T/C: 105 % of control and 107 % of control
dose: 512.0 mg/kg/injection, schedule: Q01DX005 (oral), vehicle: Klucel (hydroxypropylcellulose) (HPC)
  T/C: 90 % of control
[6]
  T/C: 96 % of control
[7]
  T/C: 113 % of control

## Cc1cn(C2CC(O)C(CO)O2)c(=O)[nH]c1=O (centres undefined)
[8]
  T/C: 92 % of control and 97 % of control
dose: 100.0 mg/kg/injection, schedule: Q01DX005 (ip), vehicle: saline with Tween-80
  T/C: 91 % of control
[9]
  T/C: 90 % of control and 105 % of control
dose: 200.0 mg/kg/injection, schedule: Q01DX005 (ip), vehicle: saline with Tween-80
  T/C: 98 % of control
[10]
  T/C: 95 % of control and 87 % of control
dose: 400.0 mg/kg/injection, schedule: Q01DX005 (ip), vehicle: saline with Tween-80
  T/C: 96 % of control
dose: 512.0 mg/kg/injection, schedule: Q01DX005 (ip), vehicle: saline with Tween-80
  T/C: 100 % of control
dose: 800.0 mg/kg/injection, schedule: Q01DX005 (ip), vehicle: saline with Tween-80
  T/C: 98 % of control
dose: 1024.0 mg/kg/injection, schedule: Q01DX005 (ip), vehicle: saline with Tween-80
  T/C: 100 % of control and 101 % of control
dose: 1600.0 mg/kg/injection, schedule: Q01DX005 (ip), vehicle: saline with Tween-80
  T/C: 98 % of control
